Laboratory results: US5948791A, “Quinoline derivatives for treating malaria” (Hoffmann-La Roche Inc., priority 1995, dated 1999)
Read-outs that look alike come from different tables or passages of the source.

Assays:
[1] = test system: Plasmodium falciparum strain NF54; assay: Growth inhibition of Plasmodium falciparum NF54 (chloroquine-sensitive) in vitro, [G-3H]-hypoxanthin incorporation; type: cell-based; details: chloroquine-sensitive strain NF54, 72 h, read-out: IC50 for P. falciparum NF54
From the text: (§1) The ratio of the growth inhibition of a strain which is especially resistant to chloroquine and of a strain which is sensitive to chloroquine gives as the "resistance index" a measurement for the absence of a cross-resistance with chloroquine. Since, for all novel compounds the resistance index lies between 0.7 and 2.5, they inhibit the growth of sensitive as well as resistant strains of the malaria pathogen equally effectively. They are accordingly also suitable for the prophylaxis of a malaria disease and also for the treatment of a malaria disease even when chloroquine is ineffective. The good activity against malaria pathogens is also shown in animal experiments. The effective doses measured after oral and subcutaneous administration to mice infected with malaria pathogens are shown in Table 2 hereinafter.
(§2) Test method for the determination of the activity against Plasmodium falciparum in vitro
(§3) The preparations are tested on intraerythrocytary stages of Plasmodium falciparum from asynchronous cultures according to the method of Desjardin et al. (Desjardins, R. E. et al: Quantitative assessment of antimalarial activity in vitro by a semiautomated microdilution technique. Antimicrob. Agents Chemother. 16, 710-718, (1979)).
(§4) The culture medium consists of RPMI 1640 with the addition of 25 mM HEPES, 25 mM NaHCO3, 100 μg/ml neomycin and […] (A^+). Human-A^+ erythrocytes are used as the Plasmodium falciparum host cells. The parasites are maintained at 37° C. in an atmosphere of 3% O2, 4% CO2, 93% N2 and 95% relative humidity.
(§5) In order to determine the activity, the preparations are dissolved in DMSO, pre-diluted in the culture medium to a suitable starting concentration and subsequently titrated-out on to microtitre plates in the 2nd stage over 6-7 steps. After the addition of the parasite culture (0.7% parasitemia in 2.5% erythrocyte suspension) the test plates are incubated under the conditions given above for 72 h. The parasite growth in the different preparation concentrations is determined using [G-^3 H]-hypoxanthin incorporation compared to untreated control cultures on the same test plates. The 50% growth inhibition (IC50) is calculated according to logit regression analysis from the resulting dosage-activity curve.
(§6) The preparations are tested on at least one chloroquine-resistant and one chloroquine-sensitive Plasmodium falciparum strain. Additional sensitive and resistant strains are included for further characterization.

Plasmodium falciparum K1 = assay: Growth inhibition of Plasmodium falciparum K1 (chloroquine-resistant) in vitro, [G-3H]-hypoxanthin incorporation; type: cell-based, Plasmodium falciparum (strain K1); details: for IC50: Plasmodium falciparum, K1, 72 h, read-out: IC50 for P. falciparum K1; for Resistance index: ratio of the IC50 for K1 and the IC50 for NF54
From the text: as §1, §2, §3, §4, §5, §6

Plasmodium berghei = assay: animal or person; type: in vivo, Plasmodium berghei (strain ANKA) in mice; details: Plasmodium berghei, mice, blood smears 48 h after treatment
Description: Test method for the determination of the activity against Plasmodium berghei in vivo
The preparations are tested on mice infected with malaria pathogens (Plasmodium berghei). Male albino mice (IBM:MORO(SPF), FUELLINSDORF) weighing about 25 g are used as the test animals. They are kept in climatized rooms at 21-22° C. in groups of 5 animals per cage. They receive ad libitum a diet feed with a low PABA content (NAFAG FUTTER " No. 9009 PAB-45, PABA content 45 mg/kg) and drinking water. On the first day of the test (D0) the test animals are infected with Plasmodium berghei (strain ANKA). For this there is used heparinized blood of a donor mouse with about 30% parasitemia, which is diluted with physiological saline such that it contains 10^8 parasitized erythrocytes per ml. 0.2 ml of this suspension is injected intravenously (i.v.) into the mice to be treated and into the control mice.
The substances to be tested are dissolved or suspended in distilled water or in a mixture of 7% Tween 80, 3% alcohol (96%) and water. Usually, 0.25 ml of this solution or suspension is administered once subcutaneously and perorally to groups of 5 test animals. Treatment is effected 24 hours after the infection. 10 control animals are treated in the same manner with solvent or suspension medium per test.
All substances are tested in a first test in a single dosage of 10 mg/kg. Only those substances which in this test (10 mg/kg) have shown a parasitaemia reduction of 90% are used for the titration. Suitable dilutions of the test substance can be used to obtain an accurate titration of the activity.
48 hours after the treatment (D+3) blood smears are prepared from all animals using blood from tail veins and are stained with giemsa. […] The difference in the average values of the infection rates of control group (100%) and treated groups is calculated and expressed as a percentage reduction (GI%). The ED50 or ED90 is determined mathematically by means of the JMP programme (nonlinear fit). The ED50 (ED90) in mg/kg is that dose which after single administration reduces the average erythrocyte infection rate by 50% (90%) in comparison to the control group.

[2] = po, single peroral dose of 10 mg/kg, read-out: Growth inhibition in % after po administration (GI%, percentage reduction of the parasitemia)
[3] = sc, single subcutaneous dose of 10 mg/kg, read-out: Growth inhibition in % after sc administration (GI%, percentage reduction of the parasitemia)

COc1cc(O)c(CN[C@H]2CC[C@@H](Nc3ccnc4cc(Cl)ccc34)CC2)c(OC)c1.Cl.Cl [Example 18, cis-2-{[4-(7-Chloro-quinolin-4-ylamino)-cyclohexylamino]-methyl}-3,5-dimethoxy-phenol dihydrochloride]
IC50 [1]: 5.5 ng/mL
IC50 (Plasmodium falciparum K1): 21 ng/mL
Resistance index (Plasmodium falciparum K1): 3.8
inhibition in vivo at 10 mg/kg (Plasmodium berghei; [2]): 100%
inhibition in vivo at 10 mg/kg (Plasmodium berghei; [3]): 100%

Cl.Cl.Clc1ccc2c(N[C@H]3CC[C@H](NCCc4c(Cl)cccc4Cl)CC3)ccnc2c1 [Example 101, trans-N1-(7-Chloro-quinolin-4-yl)-N4-[2-(2,6-dichloro-phenyl)-ethyl]-cyclohexane-1,4-diamine dihydrochloride]
IC50 [1]: 2.7 ng/mL
IC50 (Plasmodium falciparum K1): 2.9 ng/mL
Resistance index (Plasmodium falciparum K1): 1.1
inhibition in vivo at 10 mg/kg (Plasmodium berghei; [2]): 72%
inhibition in vivo at 10 mg/kg (Plasmodium berghei; [3]): 84%

CC(C)(CNc1ccnc2cc(Cl)ccc12)NCc1ccc(C#N)cc1.Cl.Cl [Example 49, N1-(7-Chloro-quinolin-4-yl)-N2-(4-cyano-benzyl)-2-methyl-propane-1,2-diamine dihydrochloride]
IC50 [1]: 8.2 ng/mL
IC50 (Plasmodium falciparum K1): 12.4 ng/mL
Resistance index (Plasmodium falciparum K1): 1.5
inhibition in vivo at 10 mg/kg (Plasmodium berghei; [2]): 88%
inhibition in vivo at 10 mg/kg (Plasmodium berghei; [3]): 87%

CN(C)c1ccc(CN[C@H]2CC[C@@H](Nc3ccnc4cc(Cl)ccc34)CC2)cc1.Cl.Cl.Cl [Example 69, cis-N1-(7-Chloro-quinolin-4-yl)-N4-(4-dimethylamino-benzyl)-cyclohexane-1,4-diamine trihydrochloride]
IC50 [1]: 3.7 ng/mL
IC50 (Plasmodium falciparum K1): 4.6 ng/mL
Resistance index (Plasmodium falciparum K1): 1.2
inhibition in vivo at 10 mg/kg (Plasmodium berghei; [2]): 100%
inhibition in vivo at 10 mg/kg (Plasmodium berghei; [3]): 100%

Cl.Cl.Clc1ccc2c(N[C@H]3CC[C@H](NCc4ccc5c(c4)OCO5)CC3)ccnc2c1 [Example 103, trans-N1 -Benzo[1,3]dioxol-5-ylmethyl-N4-(7-chloro-quinolin-4-yl)-cyclohexane-1,4-diamine dihydrochloride]
IC50 [1]: 2.1 ng/mL
IC50 (Plasmodium falciparum K1): 4.6 ng/mL
Resistance index (Plasmodium falciparum K1): 2.2
inhibition in vivo at 10 mg/kg (Plasmodium berghei; [2]): 89%
inhibition in vivo at 10 mg/kg (Plasmodium berghei; [3]): 99.8%

Cl.Cl.Clc1ccc2c(N[C@H]3CC[C@H](NCCc4ccc(Cl)c(Cl)c4)CC3)ccnc2c1 [Example 99, trans-N1-(7-Chloro-quinolin-4-yl)-N4-[2-(3,4-dichloro-phenyl)-ethyl]-cyclohexane-1,4-diamine dihydrochloride]
IC50 [1]: 3.3 ng/mL
IC50 (Plasmodium falciparum K1): 4.2 ng/mL
Resistance index (Plasmodium falciparum K1): 1.3
inhibition in vivo at 10 mg/kg (Plasmodium berghei; [2]): 91%
inhibition in vivo at 10 mg/kg (Plasmodium berghei; [3]): 96%

COc1ccc(O)c(CNC(C)(C)CNc2ccnc3cc(Cl)ccc23)c1.Cl.Cl [Example 31, N1-(7-Chloro-quinolin-4-yl)-N2-(2-hydroxy-5-methoxy-benzyl)-2-methyl-propane-1,2-diamine dihydrochloride]
IC50 [1]: 6.5 ng/mL
IC50 (Plasmodium falciparum K1): 9.9 ng/mL
Resistance index (Plasmodium falciparum K1): 1.5
inhibition in vivo at 10 mg/kg (Plasmodium berghei; [2]): 39%
inhibition in vivo at 10 mg/kg (Plasmodium berghei; [3]): 98%

Cl.Cl.N#Cc1ccc(CN[C@H]2CC[C@@H](Nc3ccnc4cc(Cl)ccc34)CC2)cc1 [Example 86, cis-N1-(7-Chloro-quinolin-4-yl)-N4-(4-cyano-benzyl)-cyclohexane-1,4-diamine dihydrochloride]
IC50 [1]: 5.6 ng/mL
IC50 (Plasmodium falciparum K1): 7 ng/mL
Resistance index (Plasmodium falciparum K1): 1.3
inhibition in vivo at 10 mg/kg (Plasmodium berghei; [2]): 99.9%
inhibition in vivo at 10 mg/kg (Plasmodium berghei; [3]): 99.9%

COc1ccc(OC)c(CCN[C@H]2CC[C@H](Nc3ccnc4cc(Cl)ccc34)CC2)c1.Cl.Cl [Example 97, trans-N1-(7-Chloro-quinolin-4-yl)-N4-[2-(2,5-dimethoxy-phenyl)-ethyl]-cyclohexane-1,4-diamine dihydrochloride]
IC50 [1]: 4.1 ng/mL
IC50 (Plasmodium falciparum K1): 17.8 ng/mL
Resistance index (Plasmodium falciparum K1): 4.3
inhibition in vivo at 10 mg/kg (Plasmodium berghei; [2]): 49%
inhibition in vivo at 10 mg/kg (Plasmodium berghei; [3]): 99%
